Read-outs that look alike come from different tables or passages of the source.

For data set [1], the system named is androgen and oestrogen receptors. Description: ED assays of androgen and oestrogen receptors (overall experimental ED result). The data set is classed as cell-based. On the procedure:
The transcriptional activation of androgen receptor (AR) assays was carried out by adapting the OECD protocol 458 (OECD [2020]).
MDA-MB-453 cells (8000 cells/well) expressing an AR luciferase reporter were seeded into 384 white plates (Greiner 781098) in culture medium (DMEM (ATCC), 10% foetal bovine serum (Sigma Aldrich), 1% penicillin–streptomycin (Sigma-Aldrich), 75 µg/ml geneticin (Gibco) and incubated overnight at 37 °C 5% CO2 and 95% humidity. After this time, the cell culture medium was discarded and replaced by assay medium (DMEM (ATCC), 0.1% foetal bovine serum (Sigma-Aldrich), and 1% penicillin–streptomycin (Sigma Aldrich)).
For studying a putative agonist effect, compounds were added to the assay plate using an Echo 550 acoustic liquid handler and incubated overnight at 37 °C 5% CO2 and 95% humidity. For studying the putative antagonist effect, compounds were added using an Echo 550 acoustic liquid handler and incubated for 15 min at 37 °C 5% CO2 and 95% humidity. Then, 1 nM 5α-dihydrotestosterone (DHT) was added, and the cell plate was incubated overnight at 37 °C, 5% CO2, and 95% humidity. After compound incubation, the cell medium was removed, 5 µl of lysis buffer 1X (Promega) was added, and the cell plate was incubated with agitation 15 min at room temperature. A freeze–thaw cycle of 10 min at −80 °C and room temperature was performed. Then 25 µl of luciferase assay reagent (Promega) was added and luminescence was determined on an EnSpire plate reader (Perkin Elmer). Data was fitted to a four-parameter sigmoidal model with Prism 5.1 (Graphpad, Inc).
The transcriptional activation of oestrogen receptor (ER) assay was carried out by adapting the OECD protocol 455 (OECD [2021]) and the method of Li et al. ([2013]).
ER luciferase reporter T47D cells (5000 cells/well) were seeded into 384 white plates (Greiner 781098) in culture medium (RPMI 1640 (Thermo Fisher Scientific 52400), 10% foetal bovine serum (Sigma Aldrich F9665), 1% penicillin–streptomycin (Sigma-Aldrich P0781), 75 µg/ml Geneticin (Gibco 10131)) and incubated overnight at 37 °C and 5% CO2. The following day, the cell culture medium was discarded and replaced by assay medium (RPMI 1640 (Thermo Fisher Scientific 52,400), 0.1% foetal bovine serum (Sigma Aldrich F9665), and 1% penicillin–streptomycin (Sigma Aldrich P0781).
The assay was performed as stated before for the AR assay using 17β-estradiol as agonist instead of DHT.
ED was assessed by transactivation in vitro assays to identify agonists and antagonists of the androgen and oestrogen receptors.
Also, the experimental group analysed the endocrine-disrupting activity for the CMR compounds.

For another data set, the system named is zebrafish embryos. On the procedure: Zebrafish embryos obtained and maintained as described previously for toxicity determination were used to determine (I) terato-carcinogenesis assayed as previously informed (Selderslaghs et al. [2009], [2012]) with modifications. In brief, embryos were incubated for 0 hpf up to 120 hpf in the presence and absence of tested compounds. Each condition was assayed in triplicate with 12 embryos per condition per replicate. The appearance of selected characteristics and malformations with respect to normal development were quantified for the eyes, otoliths, heart, circulation, hatching, skeletal deformities, and body position. For each concentration tested, we assessed the mortality and the presence of malformations at 24, 48, 72, 96, and 120 hpf using a light microscope. When possible, the lethal effects (LC50) and terato-carcinogenic effects (EC50) were determined using the ToxRat software. Based on these values, a teratogenic index (TI) was calculated as LC50/EC50. Based on previous studies, we considered a compound to be a teratogen when TI > 2 at 120 hpf. When no TI could be calculated due to no malformations induction to a degree extensive enough to calculate the EC50 in the presence of high toxicity, the compound was considered a non-teratogen. (II) Neurotoxicity was assayed by evaluating the locomotor activity in embryos exposed to the tested compounds from 0 to 120 hpf using Zebrabox and Zebralab (ViewPoint). We tested three concentrations (24 embryos per concentration) below the NOEC to avoid readily toxic concentrations. After incubation with tested compounds for 120 hs in 96-well plates, the activity of larvae in response to transitions from dark to light was evaluated. The protocol involved an initial 10 min acclimation period inside the Zebrabox, followed by three cycles of light–dark of 10 min each. After the end of each cycle, the integrated activity of each embryo was registered. Statistical analysis was done using ANOVA, followed by the Tukey post hoc test. Differences were considered significant when p < 0.05. Dead embryos were not considered in the analysis. (III) The endocrine-disrupting effect in zebrafish embryos was assayed by real-time PCR as previously reported (Jarque et al. [2019]) with modifications. In brief, 0 hpf embryos (12 embryos per condition in triplicate) were incubated with selected compounds for up to 120 hpf. After incubation, treated (embryos incubated at the concentration right below the NOEC) and control embryos were collected in RNA later and kept at − 20°C until use. RNA was extracted from the samples using the RNeasy Mini Kit (QIAGEN) and was followed by cDNA synthesis using random primers and the AffinityScript Multi Temperature cDNA Synthesis Kit (Agilent Technologies). Finally, real-time PCR was performed for eight target genes to obtain data on the estrogenic (cytochrome P450 family 19 subfamily A member 1: cyp19a1b, and vitellogenin: vtg1), androgenic (cytochrome P450 family 2 […]: cyp2k22, and cytosolic sulphotransferase 3: sult2st3), and thyroid hormone (thyroid peroxidase: tpo, thyroid hormone receptor alpha: tra, transthyretin: ttr, and iodothyronine deiodinase 2: dio2) effect of the tested compounds. Significant changes in gene expression between controls and treated samples were considered as a potential endocrine-disrupting effect.

Data set [2] is described as follows: CMR experimental result (carcinogenicity, micronucleus and reprotoxicity combined, logical OR). An excerpt:
For comparison with the prediction results, the results of the carcinogenicity, micronucleus, and reprotoxicity assays were combined using a logical OR operator. Therefore, we consider that compounds with a positive result for any of these three experimental assays is a CMR positive.

[3] abbreviates: real-time PCR, zebrafish embryos.
Setting [4] is: second of two columns headed Neurotoxic.
[5] abbreviates: positive in any of the three experimental assays.

Regarding `CCCCC(CC)CN` (stereo not shown) [2-Ethylhexylamine], the Experimental result in data set [1] is given as “Yes”. Besides, the “Reprotoxicity (R) Neurotoxic” value in the data set with zebrafish embryos (in vivo) is on record as “No”. Besides, in the data set with zebrafish embryos (setting [3]), the “induction of cytochrome P450 2 K” value is “induced” and the induction of vitellogenin result is recorded as “induced”.
On to `CNC(=O)c1cc(Cl)ccn1.Cl` [4-Chloro-N-methylpyridine-2-carboxamide hydrochloride (1:1)], for which the Experimental result in data set [1] was “No”. In the data set with zebrafish embryos (in vivo), the “Reprotoxicity (R) Endocrine disruptor” value was “No” and the “Reprotoxicity (R) Neurotoxic” value is on record as “No”. Moreover, in data set [2], the CMR experimental result is on record as “NO”.
Turning to `CCN(CC)c1ccc(N=Nc2c(Cl)cc([N+](=O)[O-])cc2[N+](=O)[O-])c(NC(C)=O)c1` [N-[2-[(2-chloro-4,6-dinitrophenyl)azo]-5-(diethylamino)phenyl]acetamide], in data set [1] (endocrine disruptor yes/no), the Experimental result is “Yes”. In addition, in the data set with zebrafish embryos (setting [3]), the “induction of cytochrome P450 2 K” value is recorded as “induced”. In the data set on zebrafish embryos (setting [4]), the “Reprotoxicity (R) Neurotoxic” value is “No”. Moreover, in data set [2] (setting [5]), the CMR experimental result is “YES”.
Regarding `O=C(OCCc1ccccc1)c1ccccc1` [Phenethyl benzoate], the Experimental result in data set [1] is “No”. Also, in the data set with zebrafish embryos (in vivo), the “Reprotoxicity (R) Endocrine disruptor” value is listed as “No” and the “Reprotoxicity (R) Neurotoxic” value was “No”.
Consider “Reaction mass of cis-4-(isopropyl) cyclohexanemethanol and trans-4-(isopropyl) cyclohexanemethanol”, for which the Experimental result in data set [1] (endocrine disruptor yes/no) is “No”. Besides, the “Reprotoxicity (R) Endocrine disruptor” value in the data set with zebrafish embryos (gene expression, 120 hpf, concentration right below NOEC) is recorded as “No”. For the same compound, in the data set on zebrafish embryos (setting [4]), the “Reprotoxicity (R) Neurotoxic” value was “No”. Besides, the CMR experimental result in data set [2] (setting [5]) is “YES”.

These data come from paper PMC10025185, “A continuous in silico learning strategy to identify safety liabilities in compounds used in the leather and textile industry” (Archives of Toxicology, 2023).
